Structures are written as SMILES. pEC50: −log10 of the molar value.

This test concerns the target T1, Zinc finger protein mex-5 (Caenorhabditis elegans, UniProt Q9XUB2).
T1 sequence (Q9XUB2 whole entry): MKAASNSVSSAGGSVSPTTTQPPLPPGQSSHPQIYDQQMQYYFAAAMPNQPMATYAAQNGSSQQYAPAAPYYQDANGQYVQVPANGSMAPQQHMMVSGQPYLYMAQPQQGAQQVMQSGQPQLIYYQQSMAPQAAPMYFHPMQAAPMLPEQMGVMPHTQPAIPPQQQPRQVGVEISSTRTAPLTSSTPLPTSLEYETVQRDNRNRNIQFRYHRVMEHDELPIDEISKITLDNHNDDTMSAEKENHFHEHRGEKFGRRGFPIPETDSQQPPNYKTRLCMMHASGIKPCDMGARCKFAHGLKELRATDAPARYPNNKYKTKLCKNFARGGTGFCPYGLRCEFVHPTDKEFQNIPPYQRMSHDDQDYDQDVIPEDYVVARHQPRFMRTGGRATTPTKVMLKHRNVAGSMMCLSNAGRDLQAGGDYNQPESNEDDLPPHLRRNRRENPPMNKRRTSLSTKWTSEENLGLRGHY
In words: potency of MEX-5 RNA-binding blockers – biochemical, C. elegans, fluorescence polarization, dose response (AID 1960). For orientation: In fluorescence polarisation assays a small probe gives low polarisation when free and higher when bound to something large.
Regarding `COc1ccc(C2C3=C(CC(C)CC3=O)OC(=N)C2C#N)c(OC)c1OC` (centres undefined) [2-amino-5-keto-7-methyl-4-(2,3,4-trimethoxyphenyl)-4,6,7,8-tetrahydrochromene-3-carbonitrile], the pEC50 (usually the negative decadic logarithm of the EC50, by convention in mol/L) is less than 3.52.
In the case of `CC1CCC2=C(C#N)C(=N)C(C#N)(C#N)C(c3cccs3)C2C1` (centres undefined) [2-amino-6-methyl-4-(2-thienyl)-4a,5,6,7-tetrahydro-4H-naphthalene-1,3,3-tricarbonitrile], the pEC50 was 4.83.
In turn, `CCOc1cc(C2C(C(C)=O)=C(C)OC(=N)C2C#N)cc(Br)c1O` (centres undefined) [2-azanyl-4-(3-bromanyl-5-ethoxy-4-oxidanyl-phenyl)-5-ethanoyl-6-methyl-4H-pyran-3-carbonitrile] gave a pEC50 of 4.91.
`N#CC1C(=N)OC2=C(C(=O)CCC2)C1c1cc2c(cc1Br)OCO2` (centres undefined) [2-azanyl-4-(6-bromanyl-1,3-benzodioxol-5-yl)-5-oxidanylidene-4,6,7,8-tetrahydrochromene-3-carbonitrile] gave a pEC50 of less than 3.52.
Turning to `N#CC1C(=N)OC2=C(C(=O)CC(c3ccco3)C2)C1c1ccc(OCc2c(F)cccc2Cl)cc1` (centres undefined) [2-azanyl-4-[4-[(2-chloranyl-6-fluoranyl-phenyl)methoxy]phenyl]-7-(furan-2-yl)-5-oxidanylidene-4,6,7,8-tetrahydrochromene-3-carbonitrile], the pEC50 was less than 3.52.
The compound `O=C(O)c1cc(-c2ccc(C=C3NC(=O)N(c4ccc(Cl)cc4)C3=O)o2)ccc1Cl` [2-chloranyl-5-[5-[(Z)-[1-(4-chlorophenyl)-2,5-bis(oxidanylidene)imidazolidin-4-ylidene]methyl]furan-2-yl]benzoic acid] gave a pEC50 of 4.41.
The compound `CC(N=Nc1ccc(Cl)c(C(=O)O)c1)c1ccc[nH]1` (centres undefined) [2-chloro-5-[2-[(1Z)-1-pyrrol-2-ylideneethyl]hydrazinyl]benzoic acid] showed a pEC50 of 3.82.
Regarding `O=C(O)c1cc(-c2ccc(CN=Nc3ccc([N+](=O)[O-])cn3)o2)ccc1Cl` [2-chloro-5-[5-[[(5-nitropyridin-2-yl)hydrazinylidene]methyl]furan-2-yl]benzoic acid], the negative-log EC50 (pEC50) was 5.20.
To `CC1(C)CC(=O)C2=C(C1)OC(=N)C(C#N)C2c1cccc(OC(=O)c2ccco2)c1` (centres undefined) [2-furancarboxylic acid [3-(2-amino-3-cyano-7,7-dimethyl-5-oxo-6,8-dihydro-4H-1-benzopyran-4-yl)phenyl] ester] belongs less than 3.52; to `O=C1NC(=O)N(CCc2ccccc2)C(=O)C1=CNNC(=O)c1ccccc1O` [2-hydroxy-N'-[(E)-[2,4,6-trioxo-1-(2-phenylethyl)-1,3-diazinan-5-ylidene]methyl]benzohydrazide], 3.70; to `COc1[nH]c(N=Cc2ccccc2)c(C#N)c1C#N` [2-methoxy-5-[(phenylmethylene)amino]-1H-pyrrole-3,4-dicarbonitrile], 5.25.
To `O=C1c2cccc3cccc(c23)C(=O)C1[N+](=O)[O-]` [2-nitro-3-oxidanyl-phenalen-1-one] belongs 5.04.
To `C=CCOc1cccc(C2C(C(=O)c3cc4ccccc4o3)C(=O)C(=O)N2c2cc(C)on2)c1` (centres undefined) [3-(1-benzofuran-2-carbonyl)-4-hydroxy-1-(5-methyl-1,2-oxazol-3-yl)-2-(3-prop-2-enoxyphenyl)-2H-pyrrol-5-one] belongs 4.09; to `Cc1cc(N2C(=O)C(=O)C(C(=O)c3cc4ccccc4o3)C2c2ccc([N+](=O)[O-])cc2)no1` (centres undefined) [3-(1-benzofuran-2-carbonyl)-4-hydroxy-1-(5-methyl-1,2-oxazol-3-yl)-2-(4-nitrophenyl)-2H-pyrrol-5-one], 4.34.
On to `C=CCOc1cccc(C2C(C(=O)c3ccc(C)o3)C(=O)C(=O)N2c2nnc(C)s2)c1` (centres undefined) [3-(5-methylfuran-2-yl)carbonyl-1-(5-methyl-1,3,4-thiadiazol-2-yl)-4-oxidanyl-2-(3-prop-2-enoxyphenyl)-2H-pyrrol-5-one], for which the pEC50 is 3.68.
Turning to `C=CCOc1cccc(C2C(C(=O)c3ccc(C)o3)C(=O)C(=O)N2c2nccs2)c1` (centres undefined) [3-(5-methylfuran-2-yl)carbonyl-4-oxidanyl-2-(3-prop-2-enoxyphenyl)-1-(1,3-thiazol-2-yl)-2H-pyrrol-5-one], the pEC50 is 6.07.
Consider `CCCOc1cccc(C2C(C(=O)c3ccco3)C(=O)C(=O)N2c2nnc(C)s2)c1` (centres undefined) [3-(furan-2-carbonyl)-4-hydroxy-1-(5-methyl-1,3,4-thiadiazol-2-yl)-2-(3-propoxyphenyl)-2H-pyrrol-5-one], for which the pEC50 is 4.08.
In the case of `C=CCOc1ccc(C2C(C(=O)c3ccco3)C(=O)C(=O)N2c2nnc(C)s2)cc1` (centres undefined) [3-(furan-2-carbonyl)-4-hydroxy-1-(5-methyl-1,3,4-thiadiazol-2-yl)-2-(4-prop-2-enoxyphenyl)-2H-pyrrol-5-one], the pEC50 is less than 3.52.
In turn, `Cc1nnc(N2C(=O)C(=O)C(C(=O)c3ccco3)C2c2cccc3ccccc23)s1` (centres undefined) [3-(furan-2-carbonyl)-4-hydroxy-1-(5-methyl-1,3,4-thiadiazol-2-yl)-2-naphthalen-1-yl-2H-pyrrol-5-one] showed a pEC50 of less than 3.52.
To `CSc1nnc(N2C(=O)C(=O)C(C(=O)c3ccco3)C2c2ccccc2)s1` (centres undefined) [3-(furan-2-carbonyl)-4-hydroxy-1-(5-methylsulfanyl-1,3,4-thiadiazol-2-yl)-2-phenyl-2H-pyrrol-5-one] belongs 4.12; to `O=C1C(=O)N(c2ncccn2)C(c2cccs2)C1C(=O)c1ccco1` (centres undefined) [3-(furan-2-carbonyl)-4-hydroxy-1-pyrimidin-2-yl-2-thiophen-2-yl-2H-pyrrol-5-one], 4.50; to `COc1ccc(C2C(C(=O)c3ccco3)C(=O)C(=O)N2c2nnc(C)s2)cc1` (centres undefined) [3-(furan-2-carbonyl)-4-hydroxy-2-(4-methoxyphenyl)-1-(5-methyl-1,3,4-thiadiazol-2-yl)-2H-pyrrol-5-one], 3.67.
Regarding `Cc1ccc(C2C(C(=O)c3ccco3)C(=O)C(=O)N2c2nnc(C)s2)cc1` (centres undefined) [3-(furan-2-carbonyl)-4-hydroxy-2-(4-methylphenyl)-1-(5-methyl-1,3,4-thiadiazol-2-yl)-2H-pyrrol-5-one], the negative-log EC50 (pEC50) is less than 3.52.
`CSc1ccc(C2C(C(=O)c3ccco3)C(=O)C(=O)N2c2nnc(SC)s2)cc1` (centres undefined) [3-(furan-2-carbonyl)-4-hydroxy-2-(4-methylsulfanylphenyl)-1-(5-methylsulfanyl-1,3,4-thiadiazol-2-yl)-2H-pyrrol-5-one] gave a pEC50 of 4.78.
To `O=C1Nc2ccccc2C1=NNc1ccccc1` [3-(phenylhydrazo)-2-indolone] belongs 4.74.
To `N#CC1C(=N)C2=C(N3CCCCC3)CCCC2C1(C#N)C#N` (centres undefined) [3-Amino-4-piperidin-1-yl-5,6,7,7a-tetrahydro-indene-1,1,2-tricarbonitrile] belongs 4.11.
As to `COc1ccc(N2C(=O)C(=Nc3ccccc3O)C(Cl)C2=O)cc1` (centres undefined) [3-Chloro-4-(2-hydroxy-phenylamino)-1-(4-methoxy-phenyl)-pyrrole-2,5-dione], the pEC50 was 4.61.
As for `O=C1C(=Nc2ccccc2O)C(Cl)C(=O)N1c1ccccc1` (centres undefined) [3-Chloro-4-(2-hydroxy-phenylamino)-1-phenyl-pyrrole-2,5-dione], the pEC50 is 4.14.
For the compound `O=c1c2ccccc2nc(N=NCc2ccc(O)cc2)n1O` [3-Hydroxy-2-{N'-[1-(4-hydroxy-phenyl)-meth-(E)-ylidene]-hydrazino}-3H-quinazolin-4-one], the negative-log EC50 (pEC50) is less than 3.52.
`Cc1cc(CN=Nc2ccc([N+](=O)[O-])cn2)c(C)n1-c1cccc(C(=O)O)c1` [3-[2,5-dimethyl-3-[[(5-nitro-2-pyridinyl)hydrazinylidene]methyl]-1-pyrrolyl]benzoic acid] had a pEC50 of 4.42.
Turning to `O=NCc1cccn1-c1cccc(C(=O)O)c1` [3-[2-(hydroximinomethyl)pyrrol-1-yl]benzoic acid], the pEC50 was less than 3.52.
`CCOC(=O)c1c2ccc(OCC(=O)NN=Cc3ccc(Cl)cc3)cc2n2ccccc12` [3-[2-[2-[(4-chlorophenyl)methylidene]hydrazinyl]-2-oxoethoxy]-10-pyrido[1,2-a]indolecarboxylic acid ethyl ester]: the pEC50 was 3.79.
Take `Cc1[nH]n(C(N)=S)c(=O)c1N=Nc1cccc(C(=O)O)c1` [3-[(1-carbamothioyl-3-methyl-5-oxo-4H-pyrazol-4-yl)diazenyl]benzoic acid]: the pEC50 is 4.64.
Compound `O=[N+]([O-])c1cc([CH+][N-]n2c(O)csc2=S)ccc1Cl` [3-[(4-chloranyl-3-nitro-phenyl)methylideneamino]-2-sulfanylidene-1,3-thiazolidin-4-one] showed a pEC50 of 4.80.
`Oc1ccc(C=Nn2c(O)csc2=S)c(O)c1O` [3-[[(E)-[2,3-bis(oxidanyl)-4-oxidanylidene-cyclohexa-2,5-dien-1-ylidene]methyl]amino]-2-sulfanylidene-1,3-thiazolidin-4-one] had a pEC50 of 6.18.
To `N#CC1C(=N)Oc2ccc3ccc(O)cc3c2C1c1ccsc1` (centres undefined) [3-amino-9-hydroxy-1-(3-thienyl)-1H-benzo[f]chromene-2-carbonitrile] belongs 4.96; to `CCCCOc1c(Br)cc(CN=O)cc1OCC` [3-bromo-4-butoxy-5-ethoxy-benzaldoxime], less than 3.52.
To `COc1ccccc1N1C(=O)C(=Nc2ccccc2O)C(Cl)C1=O` (centres undefined) [3-chloranyl-4-[(2-hydroxyphenyl)amino]-1-(2-methoxyphenyl)pyrrole-2,5-dione] belongs 5.09; to `O=C1C=C(NNC(=O)c2sc3ccccc3c2Cl)CCC1` [3-chloranyl-N-[(3-oxidanylidenecyclohexylidene)amino]-1-benzothiophene-2-carboxamide], 4.69.

The record behind these values is BindingDB's records for doi:10.7270/Q2D798VP (Broad Institute, 2009).
